Experimental data as given in patent publication US10450309B2, “Aryl sulfonamides as BLT1 antagonists” (Merck Sharp & Dohme Corp., priority 2015, dated 2019).

What follows are compounds tested against T1, human BLT1 receptor (Homo sapiens, UniProt Q15722) (assay: BLT-1 cAMP Assay). Settings: antagonist mode; HEK293 cells recombinantly expressing human BLT1; forskolin 4 μM and LTB4 2 nM.
T1 construct: expressed in transfected cells; host or cells: HEK293
T1 sequence (Q15722 whole entry): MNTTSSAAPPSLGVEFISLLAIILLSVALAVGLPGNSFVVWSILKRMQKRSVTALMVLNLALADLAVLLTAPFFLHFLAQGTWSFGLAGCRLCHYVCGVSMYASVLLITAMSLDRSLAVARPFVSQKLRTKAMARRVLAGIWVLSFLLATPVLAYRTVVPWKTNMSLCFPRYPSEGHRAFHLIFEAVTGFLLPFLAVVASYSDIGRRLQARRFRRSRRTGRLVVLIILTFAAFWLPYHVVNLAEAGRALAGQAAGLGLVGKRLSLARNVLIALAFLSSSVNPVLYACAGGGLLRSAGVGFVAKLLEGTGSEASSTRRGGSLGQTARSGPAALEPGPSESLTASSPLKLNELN
Assay type: cell-based
Experimental: The ability of compounds to antagonize the human BLT1 receptor was determined using a kit to measure changes in intracellular cyclic AMP levels (cAMP dynamic assay kit, Cisbio Cat. No. 62AM4PEC). HEK293 cells recombinantly expressing human BLT1, previously frozen in Recovery Medium (Life Technologies, Cat. No. 12648-010) were thawed and diluted into assay medium (HBSS (Hyclone SH 30268.01), 20 mM HEPES (Gibco 15630-106), 800 μM IBMX (Sigma 15879), 0.1% DTPA BSA (Perkin Elmer CR84-100)). The cell suspension was centrifuged at 200×g for 10 min and then resuspended in fresh assay medium to a density of 2.5×10^5 cells/mL. A Labcyte Echo 550 acoustic dispenser was used to transfer 25 nL of test compound dissolved in DMSO into the wells of a dry 384-well plate (Greiner 784075). All subsequent liquid additions were performed using a BIORAPTR (FRD; Beckman Coulter). Next, 5 μL of cell suspension was added and incubated for 20 min. at 37° C. and 5% CO2 in a humidified plastic tray. To test for agonist activity 5 μL of assay buffer containing forskolin (Sigma F-6886. 4 μM for BLT1) was added and incubated for 30 minutes at 37° C. and 5% CO2 in a humidified plastic tray. To test for antagonist activity 5 μL of assay buffer containing forskolin (Sigma F-6886. 4 μM for BLT1) and either LTB4 (Sigma Aldrich L0517; 2 nM BLT1) was added and incubated for 30 minutes at 37° C. and 5% CO2 in a humidified plastic tray.
The levels of cAMP were detected using the CisBio kit following the manufacturer's instructions: cAMP-d2 vial was reconstituted with distilled water and then diluted accordingly with conjugate & lysis buffer. 5 μL of cAMP-d2 working solution was added to all of the wells of the assay plate. cAMP-Cryptate vial was reconstituted with distilled water and then diluted accordingly with conjugate & lysis buffer. 5 μL of cAMP-Cryptate working solution were added to the assay plate. The assay plate was shaken for 3 minutes and incubated at room temperature for 45 minutes, then read on Perkin Elmer Envision. cAMP standard curve and fit data were plotted using a 4 parameter dose response curve fitting algorithm to fit curve. A 4-parameter curve fit (Max, min, log EC50 and slope) was used to transform fluorescent 665 nm/615 nm ratio signal to cAMP concentration. After normalization to treated and untreated controls, the percent effect of signal at each compound concentration was calculated. The plot of percent effect versus the log of compound concentration was fit with a 4-parameter concentration response equation to calculate EC50 values. Compound concentrations tested were 10 000, 3 333, 1 111, 370.4, 123.4, 41.2, 13.7, 4.6, 1.5 and 0.5 nM with 0.25% residual DMSO.
“1,1,1-Trifluoro-N-(2-((3R,4S or 3S,4R)-4-hydroxy-3-((5-(5-methylthiazol-2-yl)pyridin-2-yl)methyl)chroman-7-yl)phenyl)methanesulfonamide [Example 6]” gave an EC50 of 187 nM.
In the case of “1,1,1-Trifluoro-N-(2-((3S,4R or 3R,4S)-4-hydroxy-3-((5-(5-methylthiazol-2-yl)pyridin-2-yl)methyl)chroman-7-yl)phenyl)methanesulfonamide [Example 7]”, the EC50 is reported as 4 nM.
Work on `O=S(=O)(Nc1ccc(F)cc1-c1ccc2c(c1)OC[C@H](Cc1ccc(-c3cncs3)cn1)[C@H]2O)C(F)(F)F` (racemic) [Example 8, 1,1,1-trifluoro-N-{4-fluoro-2-[(rac-trans) 4-hydroxy-3-{[5-(1,3-thiazol-5-yl)pyridin-2-yl]methyl}-3,4-dihydro-2H-chromen-7-yl]phenyl}methanesulfonamide] yielded an EC50 of 24 nM.
With `O=S(=O)(Nc1ccccc1-c1ccc2c(c1)OC[C@@H](Cc1ccc(-c3cncs3)cn1)[C@@H]2O)C(F)(F)F` (single isomer, unassigned) [Example 1, 1,1,1-Trifluoro-N-(2-((3R,4S or 3S,4R)-4-hydroxy-3-((5-(thiazol-5-yl)pyridin-2-yl)methyl)chroman-7-yl)phenyl)methanesulfonamide] the EC50 was 82 nM.
`O=S(=O)(Nc1ccccc1-c1ccc2c(c1)OC[C@H](Cc1ccc(-c3cncs3)cn1)[C@H]2O)C(F)(F)F` (single isomer, unassigned) [Example 2, 1,1,1-Trifluoro-N-(2-((3S,4R or 3R,4S)-4-hydroxy-3-((5-(thiazol-5-yl)pyridin-2-yl)methyl)chroman-7-yl)phenyl)methanesulfonamide] was tested, and the EC50 was 8 nM.
`Cn1cc(-c2ccc(C[C@H]3COc4cc(-c5ccccc5NS(=O)(=O)C(F)(F)F)ccc4[C@@H]3O)nc2)cn1` (single isomer, unassigned) [Example 3, 1,1,1-Trifluoro-N-(2-((3S,4R or 3R,4S)-4-hydroxy-3-((5-(1-methyl-1H-pyrazol-4-yl)pyridin-2-yl)methyl)chroman-7-yl)phenyl)methanesulfonamide] showed an EC50 of 5 nM.
In the case of `Cn1cc(-c2ccc(C[C@@H]3COc4cc(-c5ccccc5NS(=O)(=O)C(F)(F)F)ccc4[C@H]3O)nc2)cn1` (single isomer, unassigned) [Example 4, 1,1,1-Trifluoro-N-(2-((3R,4S or 3S,4R)-4-hydroxy-3-((5-(1-methyl-1H-pyrazol-4-yl)pyridin-2-yl)methyl)chroman-7-yl)phenyl)methanesulfonamide], the EC50 is reported as 140 nM.
Work on `Cn1nccc1-c1ccc(C[C@@H]2COc3cc(-c4ccccc4NS(=O)(=O)C(F)(F)F)ccc3[C@H]2O)nc1` (single isomer, unassigned) [Example 5, 1,1,1-Trifluoro-N-(2-((3,4-trans)-4-hydroxy-3-((5-(1-methyl-1H-pyrazol-5-yl)pyridin-2-yl)methyl)chroman-7-yl)phenyl)methanesulfonamide] yielded an EC50 of 294 nM.
In the case of `O=S(=O)(Nc1ccccc1-c1ccc2c(c1)OC[C@@H](Cc1ccc(-c3cscn3)cn1)[C@@H]2O)C(F)(F)F` (single isomer, unassigned) [Example 9, 1,1,1-Trifluoro-N-(2-((3,4-trans)-4-hydroxy-3-((5-(thiazol-4-yl)pyridin-2-yl)methyl)chroman-7-yl)phenyl)methanesulfonamide], the EC50 is reported as 107 nM.
`O=S(=O)(Nc1ccccc1-c1ccc2c(c1)OC[C@@H](Cc1ccc(-c3nccs3)cn1)[C@@H]2O)C(F)(F)F` (single isomer, unassigned) [Example 10, 1,1,1-Trifluoro-N-(2-((3,4-trans)-4-hydroxy-3-((5-(thiazol-2-yl)pyridin-2-yl)methyl)chroman-7-yl)phenyl)methanesulfonamide] gave an EC50 of 20 nM.
`O=S(=O)(Nc1ccccc1-c1ccc2c(c1)OC[C@@H](Cc1ccc(-c3nccs3)cn1)[C@@H]2O)C(F)(F)F` (single isomer, unassigned) [Example 11, 1,1,1-Trifluoro-N-(2-((3,4-trans)-4-hydroxy-3-((5-(thiazol-2-yl)pyridin-2-yl)methyl)chroman-7-yl)phenyl)methanesulfonamide] showed an EC50 of 16 nM.
`O=S(=O)(Nc1ccccc1-c1ccc2c(c1)OC[C@@H](Cc1ccc(-c3cscn3)cn1)[C@@H]2O)C(F)(F)F` (single isomer, unassigned) [Example 12, 1,1,1-Trifluoro-N-(2-((3,4-trans)-4-hydroxy-3-((5-(thiazol-4-yl)pyridin-2-yl)methyl)chroman-7-yl)phenyl)methanesulfonamide] gave an EC50 of 4 nM.
In the case of `O=S(=O)(Nc1ccc(F)cc1-c1ccc2c(c1)OC[C@H](Cc1ccc(-c3cncs3)cn1)[C@H]2O)C(F)(F)F` (single isomer, unassigned) [Example 13, 1,1,1-trifluoro-N-{4-fluoro-2-[(3S,4R or 3R,4S)-4-hydroxy-3-{[5-(1,3-thiazol-5-yl)pyridin-2-yl]methyl}-3,4-dihydro-2H-chromen-7-yl]phenyl}methane-sulfonamide], the EC50 is reported as 4 nM.
Compound `O=S(=O)(Nc1ccc(F)cc1-c1ccc2c(c1)OC[C@@H](Cc1ccc(-c3cncs3)cn1)[C@@H]2O)C(F)(F)F` (single isomer, unassigned) [Example 14, 1,1,1-trifluoro-N-{4-fluoro-2-[(3R,4S or 3S,4R)-4-hydroxy-3-{[5-(1,3-thiazol-5-yl)pyridin-2-yl]methyl}-3,4-dihydro-2H-chromen-7-yl]phenyl}methane-sulfonamide] has an EC50 of 31 nM.
